Assay: Inhibition of Protein phosphatase 2B
Parameters: species or system Homo sapiens
Conditions: read-out: Ki app
`O=C(CCCC1CCCCC1)OC[C@H]1C[C@@H]2O[C@H]1[C@H]1C(=O)OC(=O)[C@H]12` gave a Ki of 1000 nM.
For `O=C(OC[C@H]1C[C@@H]2O[C@H]1[C@H]1C(=O)OC(=O)[C@H]12)c1ccc(Oc2ccccc2)cc1`, the Ki was 1400 nM.
Work on `O=C1OC(=O)[C@@H]2[C@H]1[C@@H]1O[C@H]2C[C@@H]1COC(=O)[C@@H]1C[C@H]1c1ccccc1` yielded a Ki of 500 nM.
`O=C(OC[C@H]1C[C@@H]2O[C@H]1[C@H]1C(=O)OC(=O)[C@H]12)c1cccc(Oc2ccccc2)c1` showed a Ki of 1800 nM.
With `O=C(CCCCc1ccccc1)OC[C@H]1C[C@@H]2O[C@H]1[C@H]1C(=O)OC(=O)[C@H]12` the Ki was 2300 nM.
`O=C(Cc1c[nH]c2ccccc12)OC[C@H]1C[C@@H]2O[C@H]1[C@H]1C(=O)OC(=O)[C@H]12` showed a Ki of 2000 nM.
Work on `O=C(Cc1ccccc1)OC[C@H]1C[C@@H]2O[C@H]1[C@H]1C(=O)OC(=O)[C@H]12` yielded a Ki of 7400 nM.
`O=C(CCc1ccccc1)OC[C@H]1C[C@@H]2O[C@H]1[C@H]1C(=O)OC(=O)[C@H]12` gave a Ki of 3700 nM.
In the case of `O=C(OC[C@H]1C[C@@H]2O[C@H]1[C@H]1C(=O)OC(=O)[C@H]12)c1ccccc1`, the Ki is reported as 11000 nM.
`O=C(CCCc1ccccc1)OC[C@H]1C[C@@H]2O[C@H]1[C@H]1C(=O)OC(=O)[C@H]12` showed a Ki of 1200 nM.
Work on `O=C(O)[C@@H]1[C@H](C(=O)O)[C@H]2CC[C@@H]1O2` [ENDOTHALL] yielded a Ki of 11500 nM.

Assay: The compound was tested for the inhibition of Protein phosphatase-1 (PP1)
Conditions: read-out: Ki app
Compound `O=C1OC(=O)[C@@H]2[C@H]1[C@@H]1O[C@H]2C[C@@H]1COC(=O)[C@@H]1C[C@H]1c1ccccc1` has a Ki of 4000 nM.
Work on `O=C(O)[C@@H]1[C@H](C(=O)O)[C@H]2CC[C@@H]1O2` [ENDOTHALL] yielded a Ki of 4000 nM.
